According to ChEMBL document CHEMBL1201862, “PubChem BioAssay data set” (2004):
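Compound exposure: 48 hours, 5 concentrations, 96-well plates. GI50: concentration for 50% inhibition of growth.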 Activity calls are given as the source filed them. Rule as the data show it: active = GI50 up to about 1.1 µM and inactive = higher.

Legend:
Assay in all cases: inhibition of tumour cell growth, NCI panel, 48 h
786-0 = system: 786-0
RXF 393 = system: RXF 393
HT-29 = system: HT-29
CCRF-CEM = system: CCRF-CEM
SNB-19 = system: SNB-19
UACC-62 = system: UACC-62
SK-MEL-28 = system: SK-MEL-28
DU-145 = system: DU-145
PC-3 = system: PC-3
HOP-62 = system: HOP-62
OVCAR-5 = system: OVCAR-5
OVCAR-4 = system: OVCAR-4
MDA-MB-435 = system: MDA-MB-435
KM12 = system: KM12
Malme-3M = system: Malme-3M
HL-60 = system: HL-60
EKVX = system: EKVX
IGROV-1 = system: IGROV-1
Hs-578T = system: Hs-578T
T47D = system: T47D
MOLT-4 = system: MOLT-4
SK-MEL-2 = system: SK-MEL-2
CAKI-1 = system: CAKI-1
NCI-H226 = system: NCI-H226
SW-620 = system: SW-620
COLO 205 = system: COLO 205
OVCAR-8 = system: OVCAR-8
NCI-H23 = system: NCI-H23
MDA-N = system: MDA-N
NCI-H460 = system: NCI-H460
SF-295 = system: SF-295
UACC-257 = system: UACC-257
ACHN = system: ACHN
U-251 = system: U-251
MCF7 = system: MCF7
K562 = system: K562
HCC 2998 = system: HCC 2998
HOP-92 = system: HOP-92
SK-OV-3 = system: SK-OV-3
SN12C = system: SN12C
A549 = system: A549
TK-10 = system: TK-10
SK-MEL-5 = system: SK-MEL-5
LOX IMVI = system: LOX IMVI
SR = system: SR
UO-31 = system: UO-31
M14 = system: M14
OVCAR-3 = system: OVCAR-3
BT-549 = system: BT-549
SF-268 = system: SF-268
MDA-MB-231 = system: MDA-MB-231
NCI/ADR-RES = system: NCI/ADR-RES
HCT-15 = system: HCT-15
RPMI-8226 = system: RPMI-8226
HCT-116 = system: HCT-116
NCI-H522 = system: NCI-H522
SNB-75 = system: SNB-75
SF-539 = system: SF-539
A498 = system: A498

COc1cccc(C2c3cc4c(cc3OC(C)(N3CCCC3)C2C)OCO4)c1OC (configuration not stated)
GI50 (786-0): 14.5 µM (inactive) | GI50 (RXF 393): 14.8 µM (inactive) | GI50 (HT-29): 5.14 µM (inactive) | GI50 (CCRF-CEM): 4.85 µM (inactive) | GI50 (SNB-19): 22.8 µM (inactive) | GI50 (UACC-62): 16.9 µM (inactive) | GI50 (SK-MEL-28): 25.9 µM (inactive) | GI50 (DU-145): 10 µM (inactive) | GI50 (PC-3): 5.11 µM (inactive) | GI50 (HOP-62): 14.3 µM (inactive) | GI50 (OVCAR-5): 16 µM (inactive) | GI50 (OVCAR-4): 5.18 µM (inactive) | GI50 (MDA-MB-435): 14.8 µM (inactive) | GI50 (KM12): 6.78 µM (inactive) | GI50 (Malme-3M): 18.8 µM (inactive) | GI50 (HL-60): 4.91 µM (inactive) | GI50 (EKVX): 14.9 µM (inactive) | GI50 (IGROV-1): 5.82 µM (inactive) | GI50 (Hs-578T): 10.7 µM (inactive) | GI50 (T47D): 4.24 µM (inactive) | GI50 (MOLT-4): 5.11 µM (inactive) | GI50 (SK-MEL-2): 7.74 µM (inactive) | GI50 (CAKI-1): 5.06 µM (inactive) | GI50 (NCI-H226): 14.4 µM (inactive) | GI50 (SW-620): 6.89 µM (inactive) | GI50 (COLO 205): 7.67 µM (inactive) | GI50 (OVCAR-8): 10.8 µM (inactive) | GI50 (NCI-H23): 15 µM (inactive) | GI50 (MDA-N): 10.6 µM (inactive) | GI50 (NCI-H460): 11.7 µM (inactive) | GI50 (SF-295): 9.1 µM (inactive) | GI50 (UACC-257): 16 µM (inactive) | GI50 (ACHN): 3.83 µM (inactive) | GI50 (U-251): 5.25 µM (inactive) | GI50 (MCF7): 11.9 µM (inactive) | GI50 (K562): 6.15 µM (inactive) | GI50 (HCC 2998): 19.1 µM (inactive) | GI50 (HOP-92): 14.3 µM (inactive) | GI50 (SK-OV-3): 5.82 µM (inactive) | GI50 (SN12C): 6.52 µM (inactive) | GI50 (A549): 5.58 µM (inactive) | GI50 (TK-10): 13.7 µM (inactive) | GI50 (SK-MEL-5): 13.4 µM (inactive) | GI50 (LOX IMVI): 11.7 µM (inactive) | GI50 (SR): 4.31 µM (inactive) | GI50 (UO-31): 6.41 µM (inactive) | GI50 (M14): 14.6 µM (inactive) | GI50 (OVCAR-3): 5.07 µM (inactive) | GI50 (BT-549): 6.67 µM (inactive) | GI50 (SF-268): 10.9 µM (inactive) | GI50 (MDA-MB-231): 19.5 µM (inactive) | GI50 (NCI/ADR-RES): 7.46 µM (inactive) | GI50 (HCT-15): 4.83 µM | GI50 (RPMI-8226): 8.97 µM (inactive) | GI50 (HCT-116): 4.3 µM (inactive) | GI50 (NCI-H522): 13.9 µM (inactive) | GI50 (SNB-75): 8.89 µM (inactive)

OC(c1cccnc1Cl)c1nc2ccccc2c2ccnc(Cl)c12 (configuration not stated)
GI50 (RXF 393): 4.12 µM (inactive) | GI50 (HT-29): 4.6 µM (inactive) | GI50 (SNB-19): 6.82 µM (inactive) | GI50 (UACC-62): 2.06 µM (inactive) | GI50 (SK-MEL-28): 23.7 µM (inactive) | GI50 (DU-145): 23 µM (inactive) | GI50 (PC-3): 2.11 µM (inactive) | GI50 (HOP-62): 2.15 µM (inactive) | GI50 (OVCAR-5): 9.51 µM (inactive) | GI50 (OVCAR-4): 27.5 µM (inactive) | GI50 (MDA-MB-435): 0.628 µM (active) | GI50 (KM12): 2.94 µM (inactive) | GI50 (Malme-3M): 6.92 µM (inactive) | GI50 (HL-60): 2.77 µM (inactive) | GI50 (EKVX): 19.2 µM (inactive) | GI50 (IGROV-1): 5.02 µM (inactive) | GI50 (Hs-578T): 2.72 µM (inactive) | GI50 (T47D): 21.4 µM (inactive) | GI50 (MOLT-4): 3.67 µM (inactive) | GI50 (SK-MEL-2): 4.94 µM (inactive) | GI50 (CAKI-1): 6.25 µM (inactive) | GI50 (SW-620): 3.06 µM (inactive) | GI50 (COLO 205): 3.38 µM (inactive) | GI50 (OVCAR-8): 9.12 µM (inactive) | GI50 (NCI-H23): 20.5 µM (inactive) | GI50 (MDA-N): 0.69 µM (active) | GI50 (SF-539): 3.02 µM (inactive) | GI50 (NCI-H460): 4.4 µM (inactive) | GI50 (SF-295): 2.52 µM (inactive) | GI50 (UACC-257): > 100 µM (inactive) | GI50 (ACHN): 9.91 µM (inactive) | GI50 (U-251): 4.18 µM (inactive) | GI50 (MCF7): 3.04 µM (inactive) | GI50 (K562): 1.4 µM (inactive) | GI50 (HOP-92): 18.7 µM (inactive) | GI50 (SK-OV-3): 8.38 µM (inactive) | GI50 (SN12C): 3.6 µM (inactive) | GI50 (A549): 7.76 µM (inactive) | GI50 (TK-10): 24.3 µM (inactive) | GI50 (SK-MEL-5): 3.46 µM (inactive) | GI50 (LOX IMVI): 7.01 µM (inactive) | GI50 (SR): 0.396 µM (active) | GI50 (UO-31): 8.87 µM (inactive) | GI50 (M14): 2.08 µM (inactive) | GI50 (A498): 3.23 µM (inactive) | GI50 (OVCAR-3): 6.08 µM (inactive) | GI50 (BT-549): 5.79 µM (inactive) | GI50 (SF-268): 6.21 µM (inactive) | GI50 (MDA-MB-231): 7.82 µM (inactive) | GI50 (NCI/ADR-RES): 2.88 µM (inactive) | GI50 (HCT-15): 3.04 µM | GI50 (RPMI-8226): 2.34 µM (inactive) | GI50 (HCT-116): 3.35 µM (inactive) | GI50 (NCI-H522): 1.05 µM (active) | GI50 (SNB-75): 15 µM (inactive)
